Several values for one entry are separate records, joined by “and”; a condition that tells them apart may be missing. Equal entries are not always repeated.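 A five-concentration, 48-hour dose response in 96-well plates underlies each endpoint, interpolated linearly between surrounding concentrations. Abbreviation: GI50, concentration required for 50% inhibition of growth. The concentration for full growth arrest is given as TGI.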
Key:
Test in all cases: NCI tumour cell line growth inhibition, 48 h
[1] = test system: DLD-1 colon
[2] = test system: SNB-78 CNS
[3] = test system: DMS 114 small cell lung
[4] = test system: DMS 273 small cell lung
[5] = test system: HOP-18 NSCLC
[6] = test system: RXF-631 renal
[7] = test system: KM20L2 colon
[8] = test system: XF 498 CNS
[9] = test system: MDA-N
[10] = test system: P388 leukemia

| SMILES | TGI [1] | TGI [2] | TGI [3] | TGI [4] | TGI [5] | TGI [6] | TGI [7] | TGI [8] | TGI [9] | GI50 [1] | TGI [10] | GI50 [7] |
| --- | --- | --- | --- | --- | --- | --- | --- | --- | --- | --- | --- | --- |
| O=C(NC(=O)c1ccccc1[N+](=O)[O-])Nc1ccc(Oc2ncc(Cl)cn2)c([N+](=O)[O-])c1 | > 100 µM | > 100 µM | 0.359 µM | > 100 µM | > 100 µM | > 100 µM | 0.383 µM | – | – | – | – | – |
| O=C(O)C(C(=O)O)P(=S)(S)c1ccccc1 (stereo not given) | > 100 µM | > 100 µM | > 100 µM | > 100 µM | – | > 100 µM | > 100 µM | > 100 µM | > 100 µM | – | – | – |
| O=c1c2ccccc2nc(/C=C(\O)c2ccncc2)n1-c1ccc(Cl)cc1 | > 100 µM | > 100 µM | > 100 µM | – | – | – | > 100 µM | 66.4 µM | – | – | – | – |
| CCOC(=O)C(N=C(c1ccccc1)c1ccccc1)N(C(=O)OC(C)(C)C)C(=O)OC(C)(C)C (stereo not given) | – | > 100 µM | > 100 µM | – | – | – | > 100 µM | – | – | – | – | – |
| c1ccc2cc(NCNc3ccc4ccccc4c3)ccc2c1 | – | – | – | – | – | – | – | – | 18.6 µM | – | – | – |
| CCc1nc(N)nc(N)c1-c1ccc2nnn(O)c2c1 | – | – | – | – | – | – | – | – | > 100 µM | – | – | – |
| O=C(NCc1cccnc1)C1COc2cc(-c3cc(=O)c4ccccc4o3)ccc2O1 (stereo not given) | > 100 µM | > 100 µM | > 79.5 µM | – | > 100 µM | > 100 µM | > 100 µM | 72.1 µM | – | – | – | – |
| Cc1cc(C)n(-c2ccnc3cc(Cl)ccc23)n1 | > 100 µM | > 100 µM | > 100 µM | > 100 µM | > 100 µM | – | > 100 µM | > 100 µM | – | – | – | – |
| CONC(C)=O | – | – | – | – | – | – | – | – | > 100 µM | – | – | – |
| COC(=O)c1ccccc1N1C(=O)Cc2ccccc2C1=O | – | > 100 µM | > 100 µM | > 100 µM | – | – | > 100 µM | – | – | – | – | – |
| C/C(CC(=O)Nc1cc(C)ccc1C)=N/N=C(N)N | > 100 µM | > 100 µM | > 100 µM | > 100 µM | – | – | > 100 µM | > 100 µM | – | – | – | – |
| COc1cc2c(c(OC)c1OC)-c1ccc(OC)c(=O)cc1[C@@H](NC(C)=O)CC2 | > 625 µM | – | 0.0724 µM | – | – | > 91.2 µM | 0.00625 µM and 0.036 µM and < 0.0625 µM | – | 0.833 µM | 0.0176 µM | 2.7 µM | 0.00285 µM and 0.018 µM |
| CC1(Br)CC2OC3(Br)C=CC(C)(O)C2(CC1=O)C3(C)C (stereo not given) | > 100 µM | > 100 µM | > 100 µM | > 100 µM | > 100 µM | – | > 100 µM | > 100 µM | – | – | – | – |
| O=C1[C@@H]2C(c3ccccc3[N+](=O)[O-])=[N+](c3ccccc3)O[C@@H]2C(=O)N1c1ccc(Cc2ccc(N3C(=O)[C@H]4C(c5ccccc5[N+](=O)[O-])=[N+](c5ccccc5)O[C@H]4C3=O)cc2)cc1 | > 100 µM | > 100 µM | > 100 µM | > 100 µM | > 100 µM | – | > 100 µM | – | – | – | – | – |
| O=C(c1ccccc1)C(c1ccccc1)C1(O)C(=O)Nc2ccc([N+](=O)[O-])cc21 (stereo not given) | > 100 µM | > 100 µM | 79.3 µM | – | – | > 100 µM | > 100 µM | > 100 µM | – | – | – | – |
| CCC(O)C1Cc2c(C)cc3c(c2O1)C(=O)c1ccccc1C3=O (stereo not given) | > 100 µM | 90.6 µM | 97.7 µM | > 100 µM | 73.6 µM | – | > 100 µM | 58.9 µM | – | – | – | – |
| O=C(O)COc1ccc(C(=O)/C(SS/C(C(=O)c2ccc(OCC(=O)O)c(Cl)c2Cl)=C2\C=C(c3ccc(Cl)cc3)SS2)=C2/C=C(c3ccc(Cl)cc3)SS2)c(Cl)c1Cl | 24.6 µM | 25.5 µM | – | 32.7 µM | 23 µM | > 100 µM | 54.5 µM | – | – | – | – | – |
| O=C(OC1CCC2OOC1O2)c1ccc([N+](=O)[O-])cc1 (stereo not given) | – | > 100 µM | > 100 µM | > 100 µM | – | – | > 100 µM | – | – | – | – | – |
| Cc1ccc(NC(=O)c2cc3ccccc3c(N=Nc3cc(S(=O)(=O)O)ccc3O)c2O)c(C)c1 | – | – | – | – | – | – | – | – | > 100 µM | – | – | – |
